One may read the Ki as a dissociation constant, usually derived from enzyme kinetics or from competition with a known ligand.

From patent US6417174B1, “Inhibitors of β-lactamases and uses therefor” (Northwestern University, priority 1997, dated 2002) come the findings set out here.

For assay [1], the target named is AmpC β-lactamase from E. coli (Escherichia coli, UniProt P00811). The assay can be described thus: biochemical. It is filed as biochemical.
Assay [2] addresses T1, TEM-1 β-lactamase from E. coli (Escherichia coli, UniProt P62593).
T1 construct: gift: Natalie Strynadka, University of Alberta
Nature of the assay: Inhibition of TEM-1 β-lactamase, spectrophotometric assay (FAP substrate). In kind it is biochemical.

In assay [3] the test system is E. coli RYC1000 harboring pBGTEM-1 producing TEM-1 β-lactamase (EC-T1). Nature of the assay: microbe, parasite or virus in culture. In kind it is cell-based, Escherichia coli. To be noted: EC-T1; for MIC of amoxicillin plus inhibitor: Table 4A, proportion 4/1; for MIC of inhibitor used alone without amoxicillin: Table 4B, not tested above 128 μg/ml, “256” indicates no inhibition of cell growth. Here is the method:
(§1) After incubation, the growth of the cells was visually inspected. The minimum inhibitory concentration (MIC) is the lowest concentration where there no cell growth was observed.
(§2) The following strains were used: Enterobacter cloacae cell line with derepressed β-lactamase production (Ent-Der), and Escherichia coli RYC1000 (araD139 D lacU169 rpsL D rib7 thiA gyrA recA56) cell lines, harboring the plasmid pBGS19 (with no β-lactamase), or the β-lactamase containing plasmids pBGAmpC (AmpC β-lactamase from E. coli; Eco-AmpC), or pBGAmpC-MHN (AmpC β-lactamase from Enterobacter cloacae; Eco-AmpCEnt). […] TEM-10 and TEM-24 differ from TEM-1 due to the following point substitutions: TEM-10 (R164S, E240K); TEM-24 (L102K, L162S, S235T, A237K). TEM-10 and TEM-24 also differ from TEM-1 in being extended spectrum enzymes (i.e., they react with a greater range of substrates than TEM-1). Also tested were clinical isolates of Pseudomonas aeruginosa. All bacterial strains and plasmids are available from Jesus Blazquez and Fernando Baquero, Servicio de Microbiologia, Hospital Ramon y Cajal, National Institute of Health, Madrid, Spain.
(§3) Several ratios, including 1:1, 2:1, 4:1, and 1:3, of β-lactam antibiotic (amoxicillin (AX) or ceftazidime (CAZ)) to boronic acid compound were used in the assays. Tazobactam (TAZO), a clinically used β-lactamase inibitor, was used as a positive control.

Assay [4] concerns E. coli RYC1000 harboring plasmid pBGAmpC-MHN (AmpC β-lactamase of Enterobacter cloacae). The assay can be described thus: microbe, parasite or virus in culture. It is filed as cell-based, Escherichia coli. The settings on record: for MIC of ceftazidime plus inhibitor: Table 3A, proportion 4/1, given as CAZ/inhibitor; for MIC of ceftazidime plus inhibitor / MIC of inhibitor used alone without ceftazidime: AmpC-MHN; for MIC of amoxicillin plus inhibitor: Table 4A, EC-AmpCEn, proportion 4/1; for MIC of inhibitor used alone without ceftazidime: Table 3B; for MIC of inhibitor used alone without amoxicillin: Table 4B, ECAmpCEn, not tested above 128 μg/ml, “256” indicates no inhibition of cell growth. As to the method:
as §1, §2, §3

Assay [5] has as its system E. coli RYC1000 harboring a plasmid coding for a mutant of AmpC from Enterobacter (ECR-AmpCEnM). Nature of the assay: microbe, parasite or virus in culture. In kind it is cell-based, Escherichia coli. To be noted: for MIC of amoxicillin plus inhibitor: Table 4A, ECR-AmpCEnM, proportion 4/1; for MIC of inhibitor used alone without amoxicillin: Table 4B, ECRAmpCEnM, not tested above 128 μg/ml, “256” indicates no inhibition of cell growth. Here is the method: as §1, §2, §3

Assay [6] deals with E. coli RYC1000 harboring plasmid pBGS19 (no β-lactamase). Nature of the assay: microbe, parasite or virus in culture. The settings on record: for MIC of ceftazidime plus inhibitor: Table 3A, proportion 4/1; for MIC of ceftazidime plus inhibitor / MIC of inhibitor used alone without ceftazidime: pBGS19; for MIC of inhibitor used alone without ceftazidime: Table 3B; for MIC of inhibitor used alone without amoxicillin: Table 4B, EC, not tested above 128 μg/ml, “256” indicates no inhibition of cell growth. It is filed as cell-based, Escherichia coli. Here is the method: as §1, §2, §3

In assay [7] the test system is E. coli RYC1000 harboring pBGAmpC-E. coli producing AmpC (ECR-AmpCEc). Nature of the assay: microbe, parasite or virus in culture. In kind it is cell-based, Escherichia coli. To be noted: ECR-AmpCEc; for MIC of amoxicillin plus inhibitor: Table 4A, proportion 4/1; for MIC of inhibitor used alone without amoxicillin: Table 4B, not tested above 128 μg/ml, “256” indicates no inhibition of cell growth. As to the method: as §1, §2, §3

Assay [8] deals with E. coli RYC1000 harboring pBGTEM-10 producing TEM-10 β-lactamase (EC-T10). Nature of the assay: microbe, parasite or virus in culture. The settings on record: EC-T10; for MIC of amoxicillin plus inhibitor: Table 4A, proportion 4/1; for MIC of inhibitor used alone without amoxicillin: Table 4B, not tested above 128 μg/ml, “256” indicates no inhibition of cell growth. It is filed as cell-based, Escherichia coli. Here is the method:
as §1, §2, §3

Assay [9] has as its system E. coli RYC1000 harboring plasmid pBGTEM-24 (TEM-24 β-lactamase). Nature of the assay: microbe, parasite or virus in culture. It is filed as cell-based, Escherichia coli. To be noted: for MIC of ceftazidime plus inhibitor: Table 3A, proportion 4/1, given as CAZ/inhibitor; for MIC of inhibitor used alone without ceftazidime: Table 3B. Here is the method: as §1, §2, §3; on MIC of ceftazidime plus inhibitor: values in µg/ml
The subject of assay [10] is β-lactamase derepressed strain of Enterobacter cloacae (Ent-Der). Nature of the assay: microbe, parasite or virus in culture. It is filed as cell-based. The settings on record: for MIC of ceftazidime plus inhibitor: Table 3A, proportion 4/1, given as CAZ/inhibitor; for MIC of ceftazidime plus inhibitor / MIC of inhibitor used alone without ceftazidime: Ent. Der.; for MIC of amoxicillin plus inhibitor: Table 4A, proportion 4/1; for MIC of amoxicillin plus inhibitor / MIC of inhibitor used alone without amoxicillin: Ent-Der.; for MIC of inhibitor used alone without ceftazidime: Table 3B; for MIC of inhibitor used alone without amoxicillin: Table 4B, not tested above 128 μg/ml, “256” indicates no inhibition of cell growth. Here is the method: as §1, §2, §3

The subject of assay [11] is Ps. aeruginosa-3 (clinical isolate). Nature of the assay: Antibacterial activity, wider range of bacteria. It is filed as cell-based, Pseudomonas aeruginosa. To be noted: Table 6. Here is the method:
(§4) Bacterial cell culture testing was performed and interpreted following the guidelines of the National Committee for Clinical Laboratory Standards (National Committee for Clinical Laboratory Standards. Methods for Dilution Antimicrobial Susceptibility Tests for Bacteria that Grow Aerobically. Approved Standard M7-A3. National Committee for Clinical Laboratory Standards, Villanova, Pa. 1993). After incubation, the growth of the cells was visually inspected. The minimum inhibitory concentration (MIC) is the lowest concentration where there no cell growth was observed.
(§5) All bacterial strains and plasmids are available from Jesus Blazquez and Fernando Baquero, Servicio de Microbiologia, Hospital Ramon y Cajal National Institute of Health, Madrid, Spain.

Assay [12] relates to Ps. aeruginosa-2 (clinical isolate). Nature of the assay: Antibacterial activity, wider range of bacteria. To be noted: Table 6. It is filed as cell-based, Pseudomonas aeruginosa. As to the method:
as §4, §5

Assay [13] relates to Citrobacter freundii derrepressed (clinical isolate). Nature of the assay: Antibacterial activity, wider range of bacteria. It is filed as cell-based. To be noted: Table 6. As to the method: as §4, §5
Assay [14] relates to Enterobacter cloacae derrepressed (clinical isolate). The assay can be described thus: Antibacterial activity, wider range of bacteria. In kind it is cell-based. The settings on record: Table 6. Here is the method: as §4, §5
Assay [15] has as its system Pseudomonas aeruginosa-1 (clinical isolate). The assay can be described thus: Antibacterial activity, wider range of bacteria. To be noted: Table 6. In kind it is cell-based. As to the method: as §4, §5
Assay [16] has as its system E. coli derrepr. (clinical isolate). Nature of the assay: Antibacterial activity, wider range of bacteria. It is filed as cell-based. The settings on record: Table 6. As to the method: as §4, §5
Where [17] appears, read: Tables 2A/2B, pH 7.0, 25° C., 100 μM cephalothin, read-out: Ki E. coli AmpC.
Setting [18] is: Tables 2A/2B, pH 7.0, 25° C., 100 μM FAP, N.I. = no inhibition observed at an inhibitor concentration of 100 μM, read-out: Ki E. coli TEM-1.

Like-named read-outs stand apart in the source and are kept apart here.

T1 sequence (P62593 24-286 limits assumed): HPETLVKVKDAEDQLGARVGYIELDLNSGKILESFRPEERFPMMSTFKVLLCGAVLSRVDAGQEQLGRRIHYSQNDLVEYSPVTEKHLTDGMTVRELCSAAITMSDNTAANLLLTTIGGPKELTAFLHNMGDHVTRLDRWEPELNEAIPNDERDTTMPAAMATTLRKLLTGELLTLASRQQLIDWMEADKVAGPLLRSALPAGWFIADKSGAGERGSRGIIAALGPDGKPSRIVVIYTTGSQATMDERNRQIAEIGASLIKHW
Sequence of AmpC β-lactamase from E. coli (P00811 20-377): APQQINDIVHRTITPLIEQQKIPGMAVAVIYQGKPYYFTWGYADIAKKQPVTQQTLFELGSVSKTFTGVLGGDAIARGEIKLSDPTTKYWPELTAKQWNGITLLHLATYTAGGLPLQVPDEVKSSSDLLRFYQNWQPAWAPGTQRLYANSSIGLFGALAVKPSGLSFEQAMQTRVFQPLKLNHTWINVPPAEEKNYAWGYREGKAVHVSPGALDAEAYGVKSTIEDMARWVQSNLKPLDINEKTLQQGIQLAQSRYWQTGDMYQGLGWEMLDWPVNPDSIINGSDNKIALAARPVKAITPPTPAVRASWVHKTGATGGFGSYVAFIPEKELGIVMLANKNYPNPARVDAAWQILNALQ

As for `C1COB([C@@H]2CCOC2)OCCN1` [DETHFB, diethanolamine-(3R)-(+)-tetrahydrofurnylboronate], the Ki in assay [1] (setting [17]) was found to be 1.1 µM; in [2] (setting [18]), 27 µM. Moreover, the “MIC of amoxicillin plus inhibitor” value in assay [3] came out at 512 µg/mL; in [4], 32 µg/mL; in assay [5] it was 64 µg/mL; in [7] it was 128 µg/mL; in assay [8], 512 µg/mL; in [10], 256 µg/mL. Moreover, the “MIC of ceftazidime plus inhibitor” value is 4/1 in assay [4], 0.5 µg/mL in [6], 256/64 in assay [9] and 32/8 in [10]. Further, in assay [6], the “MIC of inhibitor used alone without ceftazidime” value was over 512 µg/mL. For the same compound, the “MIC of inhibitor used alone without amoxicillin” value in assay [6] was found to be 256 µg/mL.
With `OB(O)c1cc2ccccc2c2ccccc12` [9PHNB, 9-Phenanthreneboronic acid], the Ki in [1] (setting [17]) came to 12.6 µM; in assay [2] (setting [18]) it was 31 µM. In assay [1] (compared with MAPB), the “dissociation constant relative to MAPB (AmpC)” value is “two to three-fold worse (higher)”. The “MIC of amoxicillin plus inhibitor” value stood at 512 µg/mL in assay [3]; 256 µg/mL in assay [4]; 64 µg/mL in assay [5]; 512 µg/mL in [7]; 512 µg/mL in assay [8]; 512 µg/mL in [10]. In addition, the “MIC of inhibitor used alone without amoxicillin” value in assay [3], in assay [4], in [5], in assay [6], in assay [7] and in [8] was 256 µg/mL each time. Also, the “MIC of inhibitor used alone without amoxicillin” value in assay [10] was 256 µg/mL. In addition, the “MIC of ceftazidime plus inhibitor” value in assay [4] was 8/2; in [6] it was under 0.25 µg/mL; in [9], 256/64; in assay [10] it was 512/128. In addition, the “MIC of inhibitor used alone without ceftazidime” value was 256 µg/mL in assay [4], 128 µg/mL in [6], 128 µg/mL in [9] and over 512 µg/mL in assay [10].
With `OB(O)c1ccc(-c2ccc(B(O)O)cc2)cc1` [BIPD, 4,4′-biphenyldiboronic acid], the inhibitory constant (Ki) in assay [1] (Example 1, read-out: Ki for AmpC) was 0.18 ± 0.02 µM; in [1] (setting [17]), 0.6 µM; in assay [2], over 100 µM. Also, the “MIC of amoxicillin plus inhibitor” value in [3] was found to be 256 µg/mL; in assay [4], 128 µg/mL; in assay [5], 128 µg/mL; in assay [7], 128 µg/mL; in assay [8] it was 256 µg/mL; in assay [10], 256 µg/mL. Further, the “MIC of inhibitor used alone without amoxicillin” value in assay [3] worked out at 256 µg/mL; in [4], 256 µg/mL; in assay [5] it was 256 µg/mL; in assay [6] it was 256 µg/mL; in assay [7] it was 128 µg/mL; in assay [8], 256 µg/mL. In assay [10], the “MIC of inhibitor used alone without amoxicillin” value was 256 µg/mL. Besides, the “MIC of ceftazidime plus inhibitor” value in [4] was 8/2; in [6], under 0.12 µg/mL; in assay [9], 256/64; in assay [10], 128/32. The “MIC of inhibitor used alone without ceftazidime” value in assay [4], in [6], in [9] and in assay [10] was over 256 µg/mL in each case.
`OB(O)c1cccs1` [TH2B, thiophene-2-boronic acid]: the Ki in [2] was 31 µM. Further, the “MIC of amoxicillin plus inhibitor” value in assay [3] was 128 µg/mL; in assay [4], 32 µg/mL; in assay [5], 32 µg/mL; in [7], 64 µg/mL; in [8], 256 µg/mL; in assay [10], 64 µg/mL. Also, the “MIC of inhibitor used alone without amoxicillin” value in assay [3] was 64 µg/mL; in assay [4] it was 128 µg/mL; in assay [5], 64 µg/mL; in assay [6], 64 µg/mL; in [7], 128 µg/mL; in assay [8] it was 128 µg/mL. Also, the “MIC of inhibitor used alone without amoxicillin” value in assay [10] worked out at 128 µg/mL. Besides, the “MIC of ceftazidime plus inhibitor” value in [4] is 8/2; in assay [6] it was under 0.25 µg/mL; in assay [9], 128/32; in assay [10], 32/8. In addition, the “MIC of inhibitor used alone without ceftazidime” value came out at 128 µg/mL in assay [4], 128 µg/mL in assay [6], 128 µg/mL in [9] and 256 µg/mL in [10].
In the case of `OB(O)c1cc2ccccc2s1` [BZBTH2B, benzo[b]thiophene-2-boronic acid], the “MIC of inhibitor used alone without ceftazidime” value in assay [4], in assay [6], in assay [9] and in assay [10] was 512 µg/mL in each case. For the same compound, the “MIC of ceftazidime plus inhibitor” value in [6] was under 0.25 µg/mL; in [9], 128/32; in assay [10] it was 32/8. For the same compound, the “MIC, agent alone (CAZ alone / BZB only)” value is recorded as 512 in assay [11]; 512 in [12]; 128 in [13]; 128 in assay [14]; 512 in [15]; 128 in assay [16].
